Source: article PMC10294390 (BMC Complementary Medicine and Therapies, 2023)
Where two headings read alike, the source gives them in different places.

Legend:
[1] = system: SW1116 human colon cancer cell line; assay: MTT assay, single and schedule-dependent combined treatment; format: cell-based; settings: Sora 0.25-10 µM alone; for IC80: Homo sapiens, SW 1116, 72 h, read-out: IC-values (µM): IC80
Protocol: (§1) The plates were washed, and PPCs [Cur, Kmf, or Que (60 or 120 µM), or Rsv (40 or 80 µM)] were added, followed by incubation at 37 °C for 48 h. For inverted sequential treatment, PPC [Cur, Kmf, or Que (60 or 120 µM), or Rsv (40 or 80 µM)] was added and incubated at 37 °C for 24 h. […] Cell growth was monitored as previously described.

[2] = system: SW837 human rectum cancer cell line; assay: as above; format: cell-based; settings: Sora 0.25-10 µM alone; for IC50: Homo sapiens, SW837, SW837, read-out: IC-values (µM): IC50
Protocol: as §1

SW1116 cells [3] = assay: Cell cycle analysis by flow cytometry (PI); format: cell-based, human; settings: Sora 5 µM, 72 h
Protocol: (§2) The cells were subsequently processed using a DNA-prep kit and DNA-Prep EPICS workstation. The cells were treated with a non-ionic detergent to permeabilize the cell membrane, followed by propidium iodide (PI) and RNase, and incubated at 15–20 °C for 15 min. The cells were resuspended in binding buffer at a concentration of 3–10 × 10^6 cells/ml for optimal staining. Fluorescence was measured using a flow cytometer (Beckman Coulter, Inc.), and the percentage of cells in the different phases of the cell cycle was calculated using the Phoenix statistical software package, Advanced DNA cell cycle software (Phoenix Flow System).

SW837 cells [4] = assay: Cell cycle analysis by flow cytometry (PI); format: cell-based, human; settings: Sora 5 µM, 72 h
Protocol: as §2

SW1116 cells [5] = assay: Annexin V-FITC/PI double staining, flow cytometry; format: cell-based, human
Protocol: (§3) The levels of cell surface phosphatidylserine were determined to monitor the type of cell death and the kinetics of apoptosis. The CRC cell lines SW1116 and SW837 were seeded (2.5 × 10^5 cells/well) into 24-well plates and incubated in a non-CO2 incubator at 37 °C for 18 h. […] The cells were subsequently washed twice with HBSS and harvested using trypsin. Finally, the cells were double-stained using the Annexin V-FITC-Flous staining kit, according to the manufacturer’s instructions (Roche Diagnostic GmbH). Annexin V-Flous labelling solution containing Annexin V-FITC and PI (100 µl) was added to both the treated and control cell groups and incubated at 15–20 °C for 15 min. The cells (1 × 10^6 cells/ml) were then resuspended in binding buffer, and fluorescence was monitored using flow cytometry (FC500; Beckman Coulter, Inc.).

SW837 cells [6] = assay: Annexin V-FITC/PI double staining, flow cytometry; format: cell-based, human
Protocol: as §3

SW1116 cells [7] = assay: DNA fragmentation assay; format: cell-based, human; settings: Sora 5 µM, PPC 200 and 400 µM, simultaneous combinations, 72 h, Fig. 8A, C
Protocol: (§4) Induction of apoptosis was monitored using a DNA fragmentation assay following the manufacturer’s instructions (Apoptotic DNA Ladder Detection kit; Abcam). […] Cells were subsequently incubated at 37 °C for 72 h. The cells were then trypsinized, harvested, washed, pelleted, and lysed using Tris–EDTA (TE) lysis buffer (35 µl). Enzyme A solution (RNase; 5 µl) was added, followed by incubation at 37 °C for 10 min. Enzyme B solution (proteinase; 5 µl) was then added, followed by incubation at 50 °C for 30 min. Ammonium acetate solution (5 µl) and isopropanol (50 µl) were added to each sample and incubated at -20 °C for 10 min. Finally, the DNA was pelleted, washed with 0.5 ml 70% methanol, and dissolved in 30 µl DNA suspension buffer. The extracted DNA samples were loaded onto a 1.2% agarose gel, along with a loading marker (1 kb DNA ladder), and subjected to electrophoresis, using a running buffer containing 1.35 µg/ml ethidium bromide at 5 V/cm for 1 h. Ethidium bromide-stained DNA bands were visualized using transillumination with UV light.

SW837 cells [8] = assay: DNA fragmentation assay; format: cell-based, human; settings: Sora 5 µM, PPC 200 and 400 µM, sequential combinations, 72 h, Fig. 8B, D
Protocol: as §4

[9] = system: SW837 human rectum cancer cell line; assay: MTT assay, single and schedule-dependent combined treatment; format: cell-based; settings: Sora 0.25-10 µM alone
DLD-1 colon tumor model = system: DLD-1 colon tumor model; set-up: method as in PMID 14692718; settings: cited from earlier work
[10] = clinical treatment with Sora, cited from earlier work
[11] = arm a of simultaneous Sora and Cur 72 h
[12] = arm a of simultaneous Sora and Kmf 72 h
[13] = arm a of inverted sequential: Que 24 h followed by Sora 48 h
[14] = arm a of inverted sequential: Rsv 24 h followed by Sora 48 h
[15] = arm a of sequential: Sora 24 h followed by Que 48 h
[16] = arm a of sequential: Sora 24 h followed by Rsv 48 h

IC50 [2, 13]: 6.86 µM
IC50 [2, 14]: 6.57 µM
IC50 [2, 15]: 6.86 µM
IC50 [2, 16]: 6.86 µM
IC50 ([9]; Homo sapiens, SW837, 72 h, arm a of simultaneous Sora and Que 72 h, read-out: IC-values (µM): IC50): 6.57 µM
Structure (SMILES): CNC(=O)c1cc(Oc2ccc(NC(=O)Nc3ccc(Cl)c(C(F)(F)F)c3)cc2)ccn1 [Sora, sorafenib]
IC80 [1, 11]: 4.86 µM
IC80 [1, 12]: 4.86 µM
IC80 ([1]; arm a of simultaneous Sora and Que 72 h): 4 µM
IC-values (µM): IC70 ([1]; arm a of inverted sequential: Cur 24 h followed by Sora 48 h): IC70 = 6.00 µM
IC-values (µM): IC60 ([1]; arm a of inverted sequential: Kmf 24 h followed by Sora 48 h): IC60 = 4.86 µM
IC-values (µM): IC60 [1, 13]: IC60 = 4.86 µM
IC-values (µM): IC60 [1, 14]: IC60 = 4.86 µM
IC-values (µM): IC60 ([1]; arm a of sequential: Sora 24 h followed by Cur 48 h): IC60 = 7.70 µM
IC-values (µM): IC60 ([1]; arm a of sequential: Sora 24 h followed by Kmf 48 h): IC60 = 0.57 µM
IC-values (µM): IC60 [1, 15]: IC60 = 0.57 µM
IC-values (µM): IC60 [1, 16]: IC60 = 0.57 µM
IC-values (µM): IC60 ([2]; SW837, arm a of inverted sequential: Cur 24 h followed by Sora 48 h): IC60 = 8.00 µM
IC-values (µM): IC60 ([2]; SW837, arm a of inverted sequential: Kmf 24 h followed by Sora 48 h): IC60 = 7.43 µM
IC-values (µM): IC70 ([2]; SW837, arm a of sequential: Sora 24 h followed by Cur 48 h): IC70 = 0.86 µM
IC-values (µM): IC60 ([2]; SW837, arm a of sequential: Sora 24 h followed by Kmf 48 h): IC60 = 7.43 µM
%G0/G1 (cells in G0/G1 phase) (SW1116 cells [3]): 38.0%
%G2/M (cells in G2/M phase) (SW1116 cells [3]): 0.0%
%S (cells in S phase) (SW1116 cells [3]): 61.0%
%SubG1 (cells in sub G1) (SW1116 cells [3]): 8.4%
%G0/G1 (cells in G0/G1 phase) (SW837 cells [4]): 52.0%
%G2/M (cells in G2/M phase) (SW837 cells [4]): 12.9%
%S (cells in S phase) (SW837 cells [4]): 34.9%
%SubG1 (cells in sub G1) (SW837 cells [4]): 1.4%
viability at 5 µM (SW1116 cells [5]; Homo sapiens, SW 1116, 72 h, read-out: B3, percentage of viable cells): 14.1%
B1, percentage of necrotic cells (SW1116 cells [5]; SW1116, Sora 5 µM, 72 h): 13.6%
B2, percentage of late apoptotic cells (SW1116 cells [5]; SW1116, Sora 5 µM, 72 h): 37.3%
B4, percentage of early apoptotic cells (SW1116 cells [5]; SW1116, Sora 5 µM, 72 h): 35%
viability at 5 µM (SW837 cells [6]; Homo sapiens, SW837, 72 h, read-out: B3, percentage of viable cells): 52.4%
B1, percentage of necrotic cells (SW837 cells [6]; SW837, Sora 5 µM, 72 h): 9.6%
B2, percentage of late apoptotic cells (SW837 cells [6]; SW837, Sora 5 µM, 72 h): 33.6%
B4, percentage of early apoptotic cells (SW837 cells [6]; SW837, Sora 5 µM, 72 h): 4.7%
induction of apoptosis as indicated by DNA fragmentation (SW1116 cells [7]): marked induction of apoptosis
DNA fragmentation (SW837 cells [8]): increased levels of DNA fragmentation
IC-values (µM): IC60 [9, 11]: IC60 = 7.43 µM
IC-values (µM): IC60 [9, 12]: IC60 = 7.14 µM
IC-values (µM): IC60 ([9]; arm a of simultaneous Sora and Rsv 72 h): IC60 = 7.71 µM
delay of tumor cell growth (DLD-1 colon tumor model): 100%
patients in whom side effects demand a dose reduction [10]: > 60%
patients with inhibition of treatment due to side effects [10]: 6–25%
patients developing toxic side effects ([10]; hand-foot syndrome, diarrhoea, fatigue, rash, weight loss): up to 80%
